Measurements published in patent US20230381503A1, “Compositions And Methods For Treating With A Combination Of Alternating Electric Fields And Ion Channel Inhibitors” (NOVOCURE GMBH, priority 2022, published 2023).

Assays:
[1] = tested on: pGBM cell lines (SF188 and KNS42); test: Cell count of pGBM cell lines with and without IAA94; type: cell-based, human; conditions: 100 uM IAA94, FIG. 3
Excerpt: (§1) The cell count in different cell lines (SF188 and KNS42) with and without IAA94.
(§2) Similar efficacy was observed when using TTFields as a treatment for pGBM (FIG. 4).

GCE62, SF188 and KNS42 = test: Cell proliferation of three cell lines treated with TTFields and IAA94; type: cell-based, human; conditions: TTFields and IAA94 compared to TTFields alone, FIG. 6
[2] = tested on: human glioblastoma primary culture; test: Cell number after TTFields plus CLIC1 inhibitor IAA94; type: cell-based; conditions: TTFields plus IAA94 vs TTFields alone or IAA94 alone, FIG. 12
Excerpt: Thus, the combination therapy is a very effective treatment.

pGBM = test: Invasion / migration capacity of pGBM with IAA94; type: cell-based, human; conditions: FIG. 3
Excerpt: as §1, §2

CC1(C2CCCC2)Cc2cc(OCC(=O)O)c(Cl)c(Cl)c2C1=O (centres unmarked) [IAA94]
overall cell count [1]: reduces overall cell count
cell proliferation, combination with TTFields (GCE62, SF188 and KNS42): significantly reduced cell proliferation compared to TTFields alone
cell number, combination with TTFields [2]: inhibits cell proliferation and/or kills more cells that TTFields alone or IAA94 alone
invasive capacity (pGBM; 100 uM IAA94, pGBM): reduces invasive capacity
capacity of pGBM to proliferate, invade and migrate (pGBM; inhibition of CLIC1 and CLIC4 by IAA94): reduced the capacity of pGBM to proliferate, invade and migrate
